Here are results for six compounds from ChEMBL document CHEMBL1134987, “Novel spirocyclic pyrrolidones as P2/P1 mimetics in potent inhibitors of HIV-1 protease” (Bioorg Med Chem Lett, 2002).

The target of the assay is Human immunodeficiency virus type 1 protease (Human immunodeficiency virus 1, UniProt Q72874). The assay can be described thus: The compound was tested for its inhibition against HIV-1 protease.
`O=C(N[C@H]1c2ccccc2C[C@H]1O)[C@H](Cc1ccccc1)C[C@H](O)CN1C(=O)C2(CCN(Cc3ccccc3)CC2)C[C@@H]1Cc1ccccc1` returned a Ki of 2500 nM.

On to `COc1ccc(S(=O)(=O)N(CC2CCCC2)C[C@@H](O)CN2C(=O)[C@@H](Cc3ccccc3)C[C@@H]2Cc2ccccc2)cc1`, for which affinity was put at a Ki of 0.8 nM.

Turning to `O=C(N[C@H]1c2ccccc2C[C@H]1O)[C@H](Cc1ccccc1)C[C@H](O)CN1C(=O)C2(CCOCC2)C[C@@H]1Cc1ccccc1`, the affinity, expressed as Ki, was 23 nM.

With `NC(C(=O)[C@H](Cc1ccccc1)C[C@H](O)CN1C(=O)[C@@H](Cc2ccccc2)C[C@@H]1Cc1ccccc1)[C@H]1c2ccccc2C[C@H]1O` (stereo partly specified), the Ki came out at 0.05 nM. This Ki is about 460-fold lower than that of the compound before.

The compound `O=C(N[C@H]1c2ccccc2C[C@H]1O)[C@H](Cc1ccccc1)C[C@H](O)CN1C(=O)C2(CCCCC2)C[C@@H]1Cc1ccccc1` showed a Ki of 50 nM. This Ki is about 1000-fold higher than that of the compound before.

`COc1ccc(S(=O)(=O)N(CC2CCCC2)C[C@@H](O)CN2C(=O)C3(CCCCC3)OC[C@@H]2Cc2ccccc2)cc1` yielded a Ki of 1.7 nM.
